Laboratory results as given in patent US11166954B2, “Dihydropyrimidine compound and preparation method and use thereof” (SICHUAN KELUN-BIOTECH BIOPHARMACEUTICAL CO., LTD., priority 2016, dated 2021).
Read-outs that look alike come from different tables or passages of the source.

Experiments:
[1] = Cytotoxicity detection (CellTiter-Glo); assay type: cell-based; conditions: human, HepG2.2.15 cells, highest concentration 150 μM
Experimental: The test compounds were diluted to 30 mM with DMSO, with 30 mM as the highest concentration, the compounds were subjected to three-fold serial dilution to various concentrations. 0.2 μL of the compounds at various concentrations were added to a 384-well plate, HepG2.2.15 cells having a concentration of 2000 cells per 50 μL were added to each well, and the highest concentration of the test compounds was 150 μM. 1 μL of DMSO was added to corresponding wells for control. The plate was incubated in a 5% CO2 incubator at 37° C. for 4 days; and 50 μL of CellTiter-Glo was added to each well after 4 days. The plate was read for detection, and a half cytotoxic concentration (CC50) was calculated.

[2] = tested on: hepatitis type B virus (HBV); assay: Inhibition of HBV DNA replication in HepG2.2.15 cells; assay type: cell-based; conditions: HepG2.2.15, HBV DNA replication
Experimental: The inhibitory effect of the compounds of the present invention on hepatitis type B virus (HBV) was tested. Cytotoxicity and effects on nucleic acid (DNA) replication level of the virus (HBV) of the compounds of the present invention were tested at a virus-cell level.
HepG2.2.15 cells in the logarithmic growth phase were plated in a 96-well plate at a cell concentration of 40 cells per μL. The cells were incubated in a 5% CO2 incubator at 37° C. for 3 days; and the culture medium was replaced with a new one ([…]) before adding compounds. The concentration of the stock solution of each Example compound is 200 μM.

[3] = biological target: T1, hERG potassium ion channel (Homo sapiens, UniProt Q12809); assay: Predictor hERG Fluorescence Polarization Assay; assay type: binding; conditions: for IC50: hERG fluorescence polarization
T1 construct: purchased
T1 sequence (Q12809 whole entry): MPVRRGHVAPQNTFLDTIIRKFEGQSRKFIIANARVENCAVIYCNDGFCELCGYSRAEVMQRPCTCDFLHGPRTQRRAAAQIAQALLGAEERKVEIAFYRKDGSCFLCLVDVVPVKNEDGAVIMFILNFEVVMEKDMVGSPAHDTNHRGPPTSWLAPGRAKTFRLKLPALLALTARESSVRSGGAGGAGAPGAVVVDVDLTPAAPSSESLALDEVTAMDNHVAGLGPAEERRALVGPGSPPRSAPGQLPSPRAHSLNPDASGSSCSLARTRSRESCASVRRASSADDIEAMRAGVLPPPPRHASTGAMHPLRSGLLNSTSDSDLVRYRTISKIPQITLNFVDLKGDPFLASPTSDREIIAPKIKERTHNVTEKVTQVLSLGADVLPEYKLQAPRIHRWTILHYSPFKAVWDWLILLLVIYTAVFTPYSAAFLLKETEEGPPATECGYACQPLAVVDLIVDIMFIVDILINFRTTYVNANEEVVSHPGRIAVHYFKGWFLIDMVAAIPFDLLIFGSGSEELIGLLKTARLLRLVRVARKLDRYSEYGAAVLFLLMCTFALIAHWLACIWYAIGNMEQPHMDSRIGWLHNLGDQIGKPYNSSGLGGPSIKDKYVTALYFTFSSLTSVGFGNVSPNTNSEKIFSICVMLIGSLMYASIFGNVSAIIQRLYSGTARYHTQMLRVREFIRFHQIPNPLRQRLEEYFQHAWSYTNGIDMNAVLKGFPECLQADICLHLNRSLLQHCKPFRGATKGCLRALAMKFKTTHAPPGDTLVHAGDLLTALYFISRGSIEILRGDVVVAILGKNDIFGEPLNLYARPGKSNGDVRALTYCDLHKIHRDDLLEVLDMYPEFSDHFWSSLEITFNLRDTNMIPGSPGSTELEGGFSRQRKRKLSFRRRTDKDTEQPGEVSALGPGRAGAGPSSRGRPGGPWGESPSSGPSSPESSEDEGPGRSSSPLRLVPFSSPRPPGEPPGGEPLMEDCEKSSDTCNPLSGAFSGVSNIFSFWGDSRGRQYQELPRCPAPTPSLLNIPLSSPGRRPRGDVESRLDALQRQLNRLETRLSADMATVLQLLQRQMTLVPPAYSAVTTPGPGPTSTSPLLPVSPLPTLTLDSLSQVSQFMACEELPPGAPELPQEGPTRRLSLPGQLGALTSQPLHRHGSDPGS
Description: In cardiac muscle cells, hERG (human Ether-a-go-go Related Gene) coded potassium channel mediates delayed rectifier potassium currents (IKr). IKr inhibition is the most important mechanism of QT interval prolongation caused by a drug.
Employing the Predictor™ hERG Fluorescence Polarization Assay, the effect of the compounds on a hERG potassium ion channel was detected.

[4] = In vivo pharmacokinetics (PK) in rats; conditions: male, SD, rat; for Kp: liver/plasma, 2 mg/kg
Experimental: The test compounds were administrated to male SD rats by intravenous (iv) and by gavage (po), respectively, the doses of the iv and po administration were respectively 1 mg/kg and 2 mg/kg, the solvent system for iv administration was 5% DMSO:5% solutol:90% physiological saline, and the solvent system for po administration was 0.5% MC. Blood was collected at multiple time points after iv administration and po administration for the PK study. Plasma samples and liver tissue samples were subjected to protein precipitation, followed by LC-MS/MS analysis. The mass spectrometer was API 5500, and the liquid chromatograph is a Waters ACQUITY I CLASS system; the chromatographic column was an Agela ASB C18 column (2.1 mm×50 mm, 1.9 μm); mobile phase A was water+0.1% formic acid, and phase B was acetonitrile; the flow rate was 0.4 mL/min, and the column temperature was 40° C. The ion source was an ESI source in a positive ion mode, and the scanning manner is multiple reaction monitoring (MRM).

Row | SMILES | CC50 at 4 days [1] [nM] | EC50 [2] [nM] | IC50 [3] [nM] | also measured
1 | CCOC(=O)C1=C(CN2CC(COCC(=O)O)CC(F)(F)C2)NC(c2nccs2)=N[C@H]1c1ccc(F)cc1Cl (stereo partly drawn) [10-136 of Example 16, 2-((1-(((R)-6-(2-chloro-4-fluorophenyl)-5-(ethoxycarbonyl)-2-(thiazol-2-yl)-3,6-dihydropyrimidin-4-yl)methyl)-5,5-difluoropiperidin-3-yl)methoxy)acetic Acid] | 122000 | 110 | – | –
2 | COC(=O)C1=C(CN2CCO[C@H](/C=C/C(=O)O)C2)NC(c2nccs2)=N[C@H]1c1ccc(F)cc1Br [10-229 of Example 28, (E)-3-((R)-4-(((R)-6-(2-bromo-4-fluorophenyl)-5-(methoxycarbonyl)-2-(thiazol-2-yl)-3,6-dihydropyrimidin-4-yl)methyl)morpholin-2-yl)acrylic Acid] | > 150000 | 8.3 | – | –
3 | CCOC(=O)C1=C(CN2CCOCC2/C=C/C(=O)O)NC(c2nccs2)=N[C@H]1c1ccc(F)cc1Cl (stereo partly drawn) [10-182 of Example 13, (E)-3-(4-(((R)-6-(2-chloro-4-fluorophenyl)-5-(ethoxycarbonyl)-2-(thiazol-2-yl)-3,6-dihydropyrimidin-4-yl)methyl)morpholin-3-yl)acrylic Acid] | > 150000 | 61.8 | – | –
4 | CCOC(=O)C1=C(CN2CCC(OCC(=O)O)C(F)(F)C2)NC(c2nccs2)=NC1c1ccc(F)cc1Cl (centres unmarked) [10-95 of Example 5, 2-((1-((6-(2-chloro-4-fluorophenyl)-5-(ethoxycarbonyl)-2-(thiazol-2-yl)-3,6-dihydropyrimidin-4-yl)methyl)-3,3-difluoropiperidin-4-yl)oxy)acetic acid] | 131000 | 314 | > 10000 | –
5 | CCOC(=O)C1=C(CN2CC(O)C(F)(F)C2)NC(c2nccs2)=N[C@H]1c1ccc(F)cc1Cl (stereo partly drawn) [10-40 of Example 11, (4R)-ethyl 4-(2-chloro-4-fluorophenyl)-6-((3,3-difluoro-4-hydroxypyrrolidin-1-yl)methyl)-2-(thiazol-2-yl)-1,4-dihydropyrimidine-5-carboxylate] | 73500 | 6.2 | > 10000 | –
6 | CCOC(=O)C1=C(CN2C[C@@H](O)[C@H](F)C2)NC(c2nccs2)=N[C@H]1c1ccc(F)cc1Cl [10-34 of Example 9, (R)-ethyl 4-(2-chloro-4-fluorophenyl)-6-(((3R,4R)-3-fluoro-4-hydroxypyrrolidin-1-yl)methyl)-2-(thiazol-2-yl)-1,4-dihydropyrimidine-5-carboxylate] | 79600 | 13.2 | – | –
7 | CCOC(=O)C1=C(CN2CCOCC2COCC(=O)O)NC(c2nccs2)=N[C@H]1c1ccc(F)cc1Cl (stereo partly drawn) [10-162 of Example 15, 2-((4-(((R)-6-(2-chloro-4-fluorophenyl)-5-(ethoxycarbonyl)-2-(thiazol-2-yl)-3,6-dihydropyrimidin-4-yl)methyl)morpholin-3-yl)methoxy)acetic Acid] | > 150000 | 213 | – | –
8 | CCOC(=O)C1=C(CN2CCC(O)C(F)(F)C2)NC(c2nccs2)=N[C@H]1c1ccc(F)cc1Cl (single isomer, unassigned) [Isomer B of Example 4] | 51300 | 34.7 | > 10000 | –
9 | CCOC(=O)C1=C(CN2CCC(O)C(F)(F)C2)NC(c2nccs2)=NC1c1ccc(F)cc1Cl (centres unmarked) [10-88 of Example 1, ethyl 4-(2-chloro-4-fluorophenyl)-6-((3,3-difluoro-4-hydroxypiperidin-1-yl)methyl)-2-(thiazol-2-yl)-1,4-dihydropyrimidine-5-carboxylate] | 61100 | 24.7 | > 10000 | –
10 | CCOC(=O)C1=C(CN2CCO[C@H](CCC(=O)O)C2)NC(c2nccs2)=N[C@H]1c1ccc(F)cc1Cl [Control compound 2, reference compound] | – | 89 | 1000 to 10000 | bioavailability ([4]; plasma, po, by gavage, 2.00 mg/kg, read-out: bioavailability (F)): 20.9%; Kp ([4]; po, po, 2.00 mg/kg, AUCINF liver/plasma, read-out: amount of exposure in liver relative to that in plasma): ~1.5; Kp ([4]; po, po, 2.00 mg/kg, Cmax liver/plasma, read-out: blood-drug concentration in liver relative to that in plasma): ~0.5; AUC(0-inf) ([4]; iv, 1.00 mg/kg, plasma): 2150 ng·h/mL; Cmax ([4]; iv, 1.00 mg/kg, plasma): 2470 ng/mL; AUC(0-inf) ([4]; po, 2.00 mg/kg, liver): 1490 ng·h/mL; Cmax ([4]; po, 2.00 mg/kg, liver): 547 ng/mL; AUC(0-inf) ([4]; po, 2.00 mg/kg, plasma): 897 ng·h/mL; Cmax ([4]; po, 2.00 mg/kg, plasma): 1250 ng/mL; inhibitory effect on the hERG potassium ion channel (in words) ([3]; criterion: IC50 greater than 10 μM = no inhibitory effect): significant inhibitory effect
11 | COC(=O)C1=C(CN2CCO[C@H](/C=C/C(=O)O)C2)NC(c2nccs2)=N[C@H]1c1ccc(F)c(F)c1Cl [10-237 of Example 30, (E)-3-((R)-4-(((R)-6-(2-chloro-3,4-difluorophenyl)-5-(methoxycarbonyl)-2-(thiazol-2-yl)-3,6-dihydropyrimidin-4-yl)methyl)morpholin-2-yl)acrylic Acid] | > 150000 | 10.9 | – | –
12 | CCOC(=O)C1=C(CN2CC(OCC(=O)O)C(F)(F)C2)NC(c2nccs2)=N[C@H]1c1ccc(F)cc1Cl (stereo partly drawn) [10-42 of Example 12, 2-((1-(((R)-6-(2-chloro-4-fluorophenyl)-5-(ethoxycarbonyl)-2-(thiazol-2-yl)-3,6-dihydropyrimidin-4-yl)methyl)-4,4-difluoropyrrolidin-3-yl)oxy)acetic acid] | > 150000 | 164 | > 10000 | –
13 | CCOC(=O)C1=C(CN2CCOC(/C=C/C(=O)O)C2)NC(c2nccs2)=N[C@H]1c1ccc(F)cc1Cl (stereo partly drawn) [10-180 of Example 14, (E)-3-(4-(((R)-6-(2-chloro-4-fluorophenyl)-5-(ethoxycarbonyl)-2-(thiazol-2-yl)-3,6-dihydropyrimidin-4-yl)methyl)morpholin-2-yl)acrylic Acid] | > 150000 | 23.5 | – | –
14 | COC(=O)C1=C(CN2CCO[C@H](/C=C/C(=O)O)C2)NC(c2nccs2)=N[C@H]1c1ccc(F)c(F)c1C [10-239 of Example 32, (E)-3-((R)-4-(((S)-6-(3,4-difluoro-2-methylphenyl)-5-(methoxycarbonyl)-2-(thiazol-2-yl)-3,6-dihydropyrimidin-4-yl)methyl)morpholin-2-yl)acrylic Acid] | > 150000 | 28.9 | – | –
15 | CCOC(=O)C1=C(CN2CC(F)(F)C2)NC(c2nccs2)=N[C@H]1c1ccc(F)cc1Cl [10-7 of Example 6, (R)-ethyl 4-(2-chloro-4-fluorophenyl)-6-((3,3-difluoroazetidin-1-yl)methyl)-2-(thiazol-2-yl)-1,4-dihydropyrimidine-5-carboxylate] | 130000 | 102 | – | –
16 | CCOC(=O)C1=C(CN2CCC(O)C(F)(F)C2)NC(c2nccs2)=NC1c1ccc(F)cc1Br (centres unmarked) [10-93 of Example 2, ethyl 4-(2-bromo-4-fluorophenyl)-6-((3,3-difluoro-4-hydroxypiperidin-1-yl)methyl)-2-(thiazol-2-yl)-1,4-dihydropyrimidine-5-carboxylate] | – | – | > 10000 | –
17 | COC(=O)C1=C(CN2CCO[C@H](/C=C/C(=O)O)C2)NC(c2nccs2)=N[C@H]1c1ccc(F)c(F)c1Br [10-238 of Example 31, (E)-3-((R)-4-(((R)-6-(2-bromo-3,4-difluorophenyl)-5-(methoxycarbonyl)-2-(thiazol-2-yl)-3,6-dihydropyrimidin-4-yl)methyl)morpholin-2-yl)acrylic Acid] | > 150000 | 10.2 | – | –
18 | COC(=O)C1=C(CN2CCO[C@H](/C=C/C(=O)O)C2)NC(c2nccs2)=N[C@H]1c1cccc(F)c1Cl [10-240 of Example 33, (E)-3-((R)-4-(((R)-6-(2-chloro-3-fluorophenyl)-5-(methoxycarbonyl)-2-(thiazol-2-yl)-3,6-dihydropyrimidin-4-yl)methyl)morpholin-2-yl)acrylic Acid] | > 150000 | 21.1 | – | –
